Measured values as given in patent US7138361B2, “Herbicidal heterocycles” (E. I. du Pont de Nemours and Company, priority 2000, dated 2006).

Tests used:
Assay type in all cases: in vivo
rice (Oryza saliva) = assay: Test C flooded paddy test; settings: for Rice plant response rating: Flooded Paddy, scale 0 to 100, 0 no effect, 100 complete control; for Plant response rating, Rice / Plant response rating (scale 0 to 100), Rice: flooded paddy test; for Plant response rating, Rice: scale 0 to 100 (0 no effect, 100 complete control)
Summary of the method: (§1)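 Visually assessed vs untreated controls 12–14 d post-treatment (greenhouse). Flooded paddy plants were at the 2-leaf stage; scale 0 = no effect, 100 = complete control.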

[1] = system: duck salad (Heteranthera limosa); assay: Test C flooded paddy test; settings: for Ducksalad plant response rating: Flooded Paddy, scale 0 to 100, 0 no effect, 100 complete control; for Plant response rating, Ducksalad / Plant response rating (scale 0 to 100), Ducksalad: flooded paddy test; for Plant response rating, Ducksalad: scale 0 to 100 (0 no effect, 100 complete control)
Summary of the method: as §1

[2] = system: barnyardgrass (Echinochloa crus-galli); assay: Test C flooded paddy test; settings: for Barnyardgrass plant response rating: Flooded Paddy, scale 0 to 100, 0 no effect, 100 complete control; for Plant response rating, Barnyardgrass / Plant response rating (scale 0 to 100), Barnyardgrass: flooded paddy test; for Plant response rating, Barnyardgrass: scale 0 to 100 (0 no effect, 100 complete control)
Summary of the method: as §1

[3] = system: smallflower flatsedge (Cyperus difformis); assay: Test C flooded paddy test; settings: for Flatsedge plant response rating: Flooded Paddy, scale 0 to 100, 0 no effect, 100 complete control; for Plant response rating, Flatsedge / Plant response rating (scale 0 to 100), Flatsedge: flooded paddy test; for Plant response rating, Flatsedge: scale 0 to 100 (0 no effect, 100 complete control)
Summary of the method: as §1

[4] = system: velvetleaf (Abutilon theophrasti); assay: Test B preemergence
Summary of the method: (§2)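 Visual injury scores, 0 = no effect to 100 = complete control, assigned against controls after 13 to 15 days in the greenhouse. Compounds formulated in non-phytotoxic solvent plus surfactant and applied to soil after planting (pre) or onto foliage of 1- to 4-leaf plants (post).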

[5] = system: barnyardgrass (Echinochloa crus-galli); assay: Test B preemergence
Summary of the method: as §2

[6] = system: lambsquarters (Chenopodium album); assay: Test C preemergence; settings: for Plant response rating (0 to 100), Lambsquarters: Rate 500 g/ha, visual evaluation after 12 to 14 days
Summary of the method: (§3)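 Each compound was dissolved in a non-phytotoxic solvent system containing a surfactant and sprayed either on freshly planted seeds (preemergence) or on young plants, 2 to 18 cm high (postemergence). Ratings after 12 to 14 greenhouse days ran from 0, no effect, to 100, complete control.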

[7] = system: woolly cupgrass (Eriochloa villosa); assay: Test C preemergence; settings: for Plant response rating (0 to 100), Cupgrass, Woolly: Rate 500 g/ha, visual evaluation after 12 to 14 days
Summary of the method: as §3

corn (Zea mays) = assay: Test C preemergence; settings: for Plant response rating (0 to 100), Corn: Rate 500 g/ha, visual evaluation after 12 to 14 days
Summary of the method: as §3

[8] = system: yellow nutsedge (Cyperus esculentus); assay: Test C preemergence; settings: for Plant response rating (0 to 100), Nutsedge: Rate 500 g/ha, visual evaluation after 12 to 14 days
Summary of the method: as §3

[9] = system: morningglory (Ipomoea hederacea); assay: Test C preemergence
Summary of the method: as §3

[10] = system: pigweed (Amaranthus retroflexus); assay: Test C preemergence; settings: for Plant response rating (0 to 100), Pigweed: Rate 500 g/ha, visual evaluation after 12 to 14 days
Summary of the method: as §3

[11] = system: johnsongrass (Sorghum halepense); assay: Test C preemergence; settings: for Plant response rating (0 to 100), Johnsongrass: Rate 500 g/ha, visual evaluation after 12 to 14 days
Summary of the method: as §3

[12] = system: Surinam grass (Brachiaria decumbens); assay: Test C preemergence; settings: for Plant response rating (0 to 100), Surinam grass: Rate 500 g/ha, visual evaluation after 12 to 14 days
Summary of the method: as §3

Nightshade = assay: Test C preemergence
[13] = system: giant foxtail (Setaria faberii); assay: Test C preemergence; settings: for Plant response rating (0 to 100), Foxtail, Giant: Rate 500 g/ha, visual evaluation after 12 to 14 days
Summary of the method: as §3

[14] = system: common ragweed (Ambrosia elatior); assay: Test C preemergence; settings: for Plant response rating (0 to 100), Ragweed, Common: Rate 500 g/ha, visual evaluation after 12 to 14 days
Summary of the method: as §3

Sunflower = assay: Test C preemergence; settings: Rate 62 g/ha, scale 0 to 100
[15] = Rate 16 g/ha, visually evaluated after 12 to 14 days, 0 = no effect, 100 = complete control
[16] = Rate 62 g/ha, visually evaluated after 12 to 14 days, 0 = no effect, 100 = complete control
[17] = under head Rate 16 g/ha, (own rate not given), after 12 to 14 days
[18] = Preemergence, Rate 500 g/ha, scale 0 to 100, 0 no effect, 100 complete control
[19] = preemergence, Rate 125 g/ha, scale of 0 to 100 where 0 is no effect and 100 is complete control, 13 to 15 days
[20] = Rate 125 g/ha, scale 0 to 100, 0 no effect, 100 complete control
[21] = preemergence, Rate 62 g/ha, scale 0 to 100
[22] = preemergence, Rate 250 g/ha, scale 0 to 100, 0 no effect, 100 complete control
[23] = Rate 250 g/ha, scale 0 to 100, 0 no effect, 100 complete control

CCOc1cccc(N2CCC(n3ccc(C(C)(C)C)n3)C2=O)c1 (stereo not shown) [Compound 130]
0: Plant response rating (scale 0 to 100), Rice (rice (Oryza saliva); [15]) | Plant response rating (scale 0 to 100), Rice (rice (Oryza saliva); [17]) | Plant response rating, Velvetleaf [4, 19] | Plant response rating, Johnsongrass [11, 21]
90: Ducksalad plant response rating ([1]; Rate 250 g/ha) | Plant response rating, Ducksalad ([1]; Rate 125 g/ha) | Plant response rating (scale 0 to 100), Ducksalad [1, 16] | Plant response rating (scale 0 to 100), Barnyardgrass [2, 16] | Flatsedge plant response rating ([3]; Rate 250 g/ha) | Flatsedge plant response rating ([3]; Rate 500 g/ha) | Plant response rating (scale 0 to 100), Flatsedge [3, 16] | Plant response rating (scale 0 to 100), Flatsedge [3, 17] | Plant response rating, Corn (corn (Zea mays); [22]) | Plant response rating, Morningglory [9, 22] | Plant response rating, Johnsongrass [11, 20] | Plant response rating, Foxtail, Giant [13, 21]
80: Rice plant response rating (rice (Oryza saliva); Rate 250 g/ha) | Plant response rating, Corn (corn (Zea mays); [20]) | Plant response rating, Nutsedge [8, 20]
30: Plant response rating, Nutsedge [8, 21]
50: Plant response rating (scale 0 to 100), Rice (rice (Oryza saliva); [16]) | Plant response rating (scale 0 to 100), Barnyardgrass [2, 17] | Plant response rating, Velvetleaf [4, 18]
20: Plant response rating, Rice (rice (Oryza saliva); Rate 125 g/ha) | Plant response rating (scale 0 to 100), Ducksalad [1, 17]
70: Plant response rating (scale 0 to 100), Ducksalad [1, 15] | Plant response rating (scale 0 to 100), Barnyardgrass [2, 15] | Plant response rating, Morningglory [9, 21]
40: Plant response rating, Corn (corn (Zea mays); [21])
100: Ducksalad plant response rating ([1]; Rate 500 g/ha) | Barnyardgrass plant response rating ([2]; Rate 250 g/ha) | Barnyardgrass plant response rating ([2]; Rate 500 g/ha) | Plant response rating, Barnyardgrass ([2]; Rate 125 g/ha) | Plant response rating, Flatsedge ([3]; Rate 125 g/ha) | Plant response rating (scale 0 to 100), Flatsedge [3, 15] | Plant response rating, Barnyardgrass [5, 18] | Plant response rating, Barnyardgrass [5, 19] | Plant response rating, Lambsquarters [6, 20] | Plant response rating, Lambsquarters [6, 21] | Plant response rating (0 to 100), Lambsquarters ([6]; preemergence) | Plant response rating, Lambsquarters [6, 22] | Plant response rating, Cupgrass, Woolly [7, 20] | Plant response rating, Cupgrass, Woolly [7, 21] | Plant response rating (0 to 100), Cupgrass, Woolly ([7]; preemergence) | Plant response rating, Cupgrass, Woolly [7, 22] | Plant response rating (0 to 100), Corn (corn (Zea mays); preemergence) | Plant response rating (0 to 100), Nutsedge ([8]; preemergence) | Plant response rating, Nutsedge [8, 22] | Plant response rating, Pigweed [10, 20] | Plant response rating, Pigweed [10, 21] | Plant response rating (0 to 100), Pigweed ([10]; preemergence) | Plant response rating, Pigweed [10, 22] | Plant response rating (0 to 100), Johnsongrass ([11]; preemergence) | Plant response rating, Johnsongrass [11, 22] | Plant response rating, Surinam grass [12, 20] | Plant response rating, Surinam grass [12, 21] | Plant response rating (0 to 100), Surinam grass ([12]; preemergence) | Plant response rating, Surinam grass [12, 22] | Plant response rating, Nightshade (Nightshade; Rate 62 g/ha, scale 0 to 100) | Plant response rating, Nightshade (Nightshade; [20]) | Plant response rating, Nightshade (Nightshade; [23]) | Plant response rating, Foxtail, Giant [13, 20] | Plant response rating (0 to 100), Foxtail, Giant ([13]; preemergence) | Plant response rating, Foxtail, Giant [13, 22] | Plant response rating, Ragweed, Common [14, 20] | Plant response rating, Ragweed, Common [14, 21] | Plant response rating (0 to 100), Ragweed, Common ([14]; preemergence) | Plant response rating, Ragweed, Common [14, 22]
60: Plant response rating, Sunflower (Sunflower)

COc1cc(N2CCC(n3ccc(C(C)(C)C)n3)C2=O)ccc1Br (stereo not shown) [Compound 141]
20: Plant response rating, Surinam grass [12, 20] | Plant response rating, Surinam grass [12, 22]
35: Rice plant response rating (rice (Oryza saliva); Rate 500 g/ha)
95: Plant response rating, Ducksalad ([1]; Rate 125 g/ha) | Flatsedge plant response rating ([3]; Rate 500 g/ha) | Plant response rating, Flatsedge ([3]; Rate 250 g/ha)
0: Plant response rating (scale 0 to 100), Rice (rice (Oryza saliva); [16]) | Plant response rating, Corn (corn (Zea mays); [21]) | Plant response rating, Nutsedge [8, 20] | Plant response rating, Nutsedge [8, 21] | Plant response rating, Nutsedge [8, 22] | Plant response rating, Johnsongrass [11, 20] | Plant response rating, Johnsongrass [11, 21] | Plant response rating, Johnsongrass [11, 22]
25: Plant response rating, Rice (rice (Oryza saliva); Rate 125 g/ha)
30: Plant response rating, Rice (rice (Oryza saliva); Rate 250 g/ha) | Plant response rating, Corn (corn (Zea mays); [20]) | Plant response rating (0 to 100), Corn (corn (Zea mays); preemergence) | Plant response rating, Corn (corn (Zea mays); [22]) | Plant response rating, Morningglory [9, 21] | Plant response rating, Sunflower (Sunflower)
10: Plant response rating, Surinam grass [12, 21]
85: Plant response rating (scale 0 to 100), Ducksalad [1, 16]
70: Plant response rating (scale 0 to 100), Barnyardgrass [2, 16] | Plant response rating, Velvetleaf [4, 19]
100: Ducksalad plant response rating ([1]; Rate 500 g/ha) | Plant response rating, Ducksalad ([1]; Rate 250 g/ha) | Barnyardgrass plant response rating ([2]; Rate 500 g/ha) | Plant response rating, Barnyardgrass ([2]; Rate 125 g/ha) | Plant response rating, Barnyardgrass ([2]; Rate 250 g/ha) | Plant response rating, Velvetleaf [4, 18] | Plant response rating, Barnyardgrass [5, 18] | Plant response rating, Barnyardgrass [5, 19] | Plant response rating, Lambsquarters [6, 20] | Plant response rating, Lambsquarters [6, 21] | Plant response rating (0 to 100), Lambsquarters ([6]; preemergence) | Plant response rating, Lambsquarters [6, 22] | Plant response rating, Cupgrass, Woolly [7, 20] | Plant response rating, Cupgrass, Woolly [7, 21] | Plant response rating (0 to 100), Cupgrass, Woolly ([7]; preemergence) | Plant response rating, Cupgrass, Woolly [7, 22] | Plant response rating, Morningglory [9, 20] | Plant response rating (0 to 100), Morningglory ([9]; preemergence, Rate 500 g/ha, visual evaluation after 12 to 14 days) | Plant response rating, Morningglory [9, 22] | Plant response rating, Pigweed [10, 20] | Plant response rating, Pigweed [10, 21] | Plant response rating (0 to 100), Pigweed ([10]; preemergence) | Plant response rating, Pigweed [10, 22] | Plant response rating (0 to 100), Johnsongrass ([11]; preemergence) | Plant response rating (0 to 100), Surinam grass ([12]; preemergence) | Plant response rating, Nightshade (Nightshade; Rate 62 g/ha, scale 0 to 100) | Plant response rating, Nightshade (Nightshade; [20]) | Plant response rating, Nightshade (Nightshade; [23]) | Plant response rating, Foxtail, Giant [13, 20] | Plant response rating, Foxtail, Giant [13, 21] | Plant response rating (0 to 100), Foxtail, Giant ([13]; preemergence) | Plant response rating, Foxtail, Giant [13, 22] | Plant response rating, Ragweed, Common [14, 20] | Plant response rating, Ragweed, Common [14, 21] | Plant response rating (0 to 100), Ragweed, Common ([14]; preemergence) | Plant response rating, Ragweed, Common [14, 22]
90: Plant response rating, Flatsedge ([3]; Rate 125 g/ha) | Plant response rating (scale 0 to 100), Flatsedge [3, 16]
50: Plant response rating (0 to 100), Nutsedge ([8]; preemergence)
